The text below walks through data of patent publication US20230365589A1, “NOVEL AMINE DERIVATIVES” (Sumitomo Pharma Co., Ltd., priority 2020, published 2023).

Structures are written as SMILES. Like-named read-outs stand apart in the source and are kept apart here. Bounds are passed on as bounds.

Common to all, as to type: biochemical
Assay [1] concerns the target T1, DYRK1A (Homo sapiens, UniProt Q13627).
T1 construct: purchased Carna Biosciences, Inc. 04-130
Kind of assay: Inhibition test on activity of DYRK family, mobility shift assay (MSA): DYRK1A. How it is done:
(§1) [Inhibition Test on Activity of DYRK Family (DYRK1A, DYRK1B, DYRK2, and DYRK3)]
(§2) The kinase activity was measured by mobility shift assay (MSA) method using QuickScout Screening Assist™ MSA (commercially available kit manufactured by Carna Biosciences, Inc.). The substrate of the kinase reaction used was an FITC-labeled DYRKtide peptide included in the kit. An assay buffer [20 mM HEPES, 0.01% Triton X-100™, 2 mM dithiothreitol, pH 7.5]was used to create a substrate mixture solution with a substrate (4 μM), MgCl2(20 mM), and ATP (DYRK1A: 100 μM; DYRK1B: 200 μM; DYRK2: 40 μM; and DYRK3: 20 μM). In addition, kinases (DYRK1A: manufactured by Carna Biosciences, Inc., Cat. No. 04-130; DYRK1B: manufactured by Carna Biosciences, Inc., Cat. No. 04-131; DYRK2; manufactured by Carna Biosciences, Inc., Cat. No. 04-132; and DYRK3; manufactured by Carna Biosciences, Inc., Cat. No. 04-133) were diluted with the assay buffer to prepare enzyme solutions (DYRK1A: 0.2 ng/μL; DYRK1B: 0.08 ng/μL; DYRK2: 0.04 ng/μL; and DYRK3: 0.25 ng/μL). The 10 mM solution of the test compound in DMSO was further diluted with DMSO to 10 levels of the concentration (0.00003 mM, 0.0001 mM, 0.0003 mM, 0.001 mM, 0.003 mM, 0.01 mM, 0.03 mM, 0.1 mM, 0.3 mM, and 1 mM), each of which was subjected to 25-fold dilution with the assay buffer to obtain a drug solution (4% DMSO solution). 5 μL of the drug solution or a control solution (4% DMSO-assay buffer), 5 μL of the substrate mixture solution, and 10 μL of the enzyme solution were mixed in the wells of a polypropylene 384-well plate and allowed to react at room temperature for 1 hour, and then the reaction was quenched by adding 60 μL of the termination buffer included in the kit. Subsequently, the quantities of the substrates (S) and the phosphorylated substrate (P) in the reaction solution were measured using LabChip EZ Reader II system (manufactured by Caliper Life Sciences) according to the protocol of the assay kit.
(§3) The heights of the peaks of the “substrate” and the “phosphorylated substrate” were expressed as S and P, respectively, and a blank containing the assay buffer instead of the enzyme solution was also measured.
(§4) The inhibition rate (%) of the test compound was calculated according to the following equation:
(§5) Inhibition rate (%)=(1−(C−A)/(B−A))×100 • wherein, A, B, and C represent P/(P+S) of the blank well, P/(P+S) of the control solution well, and P/(P+S) of the compound-containing well, respectively.
(§6) The IC50 value was calculated via a regression analysis of the inhibition rate and the test compound concentration (logarithmic value).

In assay [2] the target is T2, DYRK2 (Homo sapiens, UniProt Q92630).
T2 construct: purchased Carna Biosciences, Inc. 04-132
T2 sequence (Q92630 74-601 limits assumed): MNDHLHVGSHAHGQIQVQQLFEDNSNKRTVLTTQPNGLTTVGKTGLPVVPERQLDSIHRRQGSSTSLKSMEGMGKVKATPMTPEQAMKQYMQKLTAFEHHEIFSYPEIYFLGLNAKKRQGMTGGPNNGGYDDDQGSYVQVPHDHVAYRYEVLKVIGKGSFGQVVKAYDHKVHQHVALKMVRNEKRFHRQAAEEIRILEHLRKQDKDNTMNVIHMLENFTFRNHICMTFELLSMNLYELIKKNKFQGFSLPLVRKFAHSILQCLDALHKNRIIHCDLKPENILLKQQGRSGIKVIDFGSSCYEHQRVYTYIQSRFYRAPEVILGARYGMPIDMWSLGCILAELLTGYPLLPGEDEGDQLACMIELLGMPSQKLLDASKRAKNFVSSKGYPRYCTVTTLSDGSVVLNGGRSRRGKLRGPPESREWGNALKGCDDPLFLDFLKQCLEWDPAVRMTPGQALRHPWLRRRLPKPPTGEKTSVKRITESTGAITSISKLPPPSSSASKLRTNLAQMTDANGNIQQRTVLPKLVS
Kind of assay: Inhibition test on activity of DYRK family, mobility shift assay (MSA): DYRK2. How it is done:
as §1, §2, §3, §4, §5, §6
(§7) The inhibiting activities of representative compounds of the present invention are shown against DYRK1A, DYRK1B, DYRK2, and DYRK3 in Tables.

The target in assay [3] is T3, DYRK3 (Homo sapiens, UniProt O43781).
T3 construct: purchased Carna Biosciences, Inc. 04-133
T3 sequence (O43781 1-568 isoform O43781-2): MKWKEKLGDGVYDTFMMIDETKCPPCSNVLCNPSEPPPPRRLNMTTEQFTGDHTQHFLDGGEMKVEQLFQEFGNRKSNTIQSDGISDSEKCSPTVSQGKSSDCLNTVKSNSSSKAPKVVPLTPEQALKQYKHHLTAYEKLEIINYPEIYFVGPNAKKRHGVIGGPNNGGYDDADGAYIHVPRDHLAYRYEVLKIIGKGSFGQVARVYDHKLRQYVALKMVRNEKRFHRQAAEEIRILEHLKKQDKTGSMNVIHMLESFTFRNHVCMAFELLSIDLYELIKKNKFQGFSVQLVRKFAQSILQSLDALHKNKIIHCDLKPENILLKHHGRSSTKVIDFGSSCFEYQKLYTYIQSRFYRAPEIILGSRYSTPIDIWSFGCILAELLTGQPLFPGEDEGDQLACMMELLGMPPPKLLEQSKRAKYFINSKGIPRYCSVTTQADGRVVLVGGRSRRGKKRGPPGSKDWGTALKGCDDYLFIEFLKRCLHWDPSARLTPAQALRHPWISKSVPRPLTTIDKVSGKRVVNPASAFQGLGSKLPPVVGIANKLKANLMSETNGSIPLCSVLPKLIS
Kind of assay: Inhibition test on activity of DYRK family, mobility shift assay (MSA): DYRK3. How it is done: as §1, §2, §3, §4, §5, §6, §7

The mark [4] stands for this setting: read-out: Inhibitory activity DYRK 1A.
Setting [5] is: read-out: Inhibitory activity DYRK 2.
The mark [6] stands for this setting: read-out: Inhibitory activity DYRK 3.
[7] abbreviates: MSA, FITC-labeled DYRKtide peptide, ATP 100 μM, read-out: Inhibitory activity DYRK 1A (IC50 class).
Setting [8] is: MSA, FITC-labeled DYRKtide peptide, ATP 40 μM, read-out: Inhibitory activity DYRK 2 (IC50 class).
[9] abbreviates: MSA, FITC-labeled DYRKtide peptide, ATP 20 μM, read-out: Inhibitory activity DYRK 3 (IC50 class).

Turning to `O=C1N[C@H]2CCN(C3CC3)C[C@H]2N1c1nc2c3c(ccc2s1)OCC3` (racemic) [Example 98, rac-(3aR,7aS)-5-cyclopropyl-3-(7,8-dihydrofuro[3,2-e][1,3]benzothiazol-2-yl)octahydro-2H-imidazo[4,5-c]pyridin-2-one], the IC50 is below 10 nM in assay [1] (setting [4]), at least 1000 nM in assay [2] (setting [5]) and at least 1000 nM in assay [3] (setting [6]).

Take `C#CCN1CC[C@@H]2NC(=O)N(c3nc4c5c(ccc4s3)OCC5)[C@@H]2C1` (racemic) [Example 99, rac-(3aR,7aS)-3-(7,8-dihydrofuro[3,2-e][1,3]benzothiazol-2-yl)-5-(2-propyn-1-yl)octahydro-2H-imidazo[4,5-c]pyridin-2-one]: the IC50 is below 10 nM in assay [1] (setting [4]), 100 to 1000 nM in assay [2] (setting [5]) and 100 to 1000 nM in assay [3] (setting [6]).

On to `C#CCN1C[C@@H]2NC(=O)N(c3nc4c5c(ccc4s3)OCC5)[C@@H]2C1` (racemic) [Example 102, rac-(3aR,6aS)-1-(7,8-dihydrofuro[3,2-e][1,3]benzothiazol-2-yl)-5-(2-propyn-1-yl)hexahydropyrrolo[3,4-d]imidazol-2(1H)-one], for which the IC50 in assay [1] (setting [4]) is 10 to 100 nM; in assay [2] (setting [5]), at least 1000 nM; in assay [3] (setting [6]) it was 100 to 1000 nM.

With `N#CCN1C[C@@H]2NC(=O)N(c3nc4c5c(ccc4s3)OCC5)[C@@H]2C1` (racemic) [Example 103, rac-[(3aR,6aS)-1-(7,8-dihydrofuro[3,2-e][1,3]benzothiazol-2-yl)-2-oxohexahydropyrrolo[3,4-d]imidazol-5(1H)-yl]acetonitrile], the IC50 in assay [1] (setting [4]) was 10 to 100 nM; in assay [2] (setting [5]) it was at least 1000 nM; in assay [3] (setting [6]) it was 100 to 1000 nM.

With `O=C1N[C@H]2CCCN(C3CC3)C[C@H]2N1c1nc2c3c(ccc2s1)OCC3` (racemic) [Example 104, rac-(3aR,8aS)-5-cyclopropyl-3-(7,8-dihydrofuro[3,2-e][1,3]benzothiazol-2-yl)octahydroimidazo[4,5-c]azepin-2(1H)-one], the IC50 in assay [1] (setting [4]) is below 10 nM; in assay [2] (setting [5]), 100 to 1000 nM; in assay [3] (setting [6]), 100 to 1000 nM.

Regarding `C#CCN1CCC[C@@H]2NC(=O)N(c3nc4c5c(ccc4s3)OCC5)[C@@H]2C1` (racemic) [Example 105, rac-(3aR,8aS)-3-(7,8-dihydrofuro[3,2-e][1,3]benzothiazol-2-yl)-5-(2-propyn-1-yl)octahydroimidazo[4,5-c]azepin-2(1H)-one], the results for the IC50 in assay [1] (setting [4]), in assay [2] (setting [5]) and in assay [3] (setting [6]) were 10 to 100 nM, at least 1000 nM and at least 1000 nM, respectively.

Regarding `N#CCN1CCC[C@@H]2NC(=O)N(c3nc4c5c(ccc4s3)OCC5)[C@@H]2C1` (racemic) [Example 106, rac-[(3aR,8aS)-3-(7,8-dihydrofuro[3,2-e][1,3]benzothiazol-2-yl)-2-oxooctahydroimidazo[4,5-c]azepin-5(1H)-yl]acetonitrile], the IC50 in assay [1] (setting [4]) is 10 to 100 nM; in assay [2] (setting [5]), at least 1000 nM; in assay [3] (setting [6]), 100 to 1000 nM.

Turning to `O=C1N[C@H]2CCN(CC(F)(F)F)C[C@H]2N1c1nc2c3c(ccc2s1)OCC3` (racemic) [Example 107, rac-(3aR,7aS)-3-(7,8-dihydrofuro[3,2-e][1,3]benzothiazol-2-yl)-5-(2,2,2-trifluoroethyl)octahydro-2H-imidazo[4,5-c]pyridin-2-one], the IC50 was 10 to 100 nM in assay [1] (setting [4]), at least 1000 nM in assay [2] (setting [5]) and at least 1000 nM in assay [3] (setting [6]).

In the case of `O=C1N[C@H]2CCN(CC(F)F)C[C@H]2N1c1nc2c3c(ccc2s1)OCC3` (racemic) [Example 108, rac-(3aR,7aS)-5-(2,2-difluoroethyl)-3-(7,8-dihydrofuro[3,2-e][1,3]benzothiazol-2-yl)octahydro-2H-imidazo[4,5-c]pyridin-2-one], the IC50 in assay [1] (setting [4]) is 10 to 100 nM; in assay [2] (setting [5]), at least 1000 nM; in assay [3] (setting [6]), at least 1000 nM.

As to `O=C1N[C@H]2CCOC[C@H]2N1c1nc2c3c(ccc2s1)OCC3` (racemic) [Example 120, rac-(3aR,7aR)-3-(7,8-dihydrofuro[3,2-e][1,3]benzothiazol-2-yl)hexahydropyrano[3,4-d]imidazol-2(3H)-one], the IC50 lay within 10 to 100 nM in assay [1] (setting [4]), 100 to 1000 nM in assay [2] (setting [5]) and 100 to 1000 nM in assay [3] (setting [6]).

On to `O=C1N[C@H]2COCC[C@H]2N1c1nc2c3c(ccc2s1)OCC3` (racemic) [Example 121, rac-(3aR,7aR)-1-(7,8-dihydrofuro[3,2-e][1,3]benzothiazol-2-yl)hexahydropyrano[3,4-d]imidazol-2(3H)-one], for which the IC50 in assay [1] (setting [4]) was 10 to 100 nM; in assay [2] (setting [5]) it was 100 to 1000 nM; in assay [3] (setting [6]), 100 to 1000 nM.

Turning to `O=C1N[C@H]2CCNC[C@H]2N1c1nc2c3c(ccc2s1)OCC3` (relative stereo) [Example 1, cis-3-(7,8-Dihydrofuro[3,2-e][1,3]benzothiazol-2-yl)octahydro-2H-imidazo[4,5-c]pyridin-2-one], the IC50 in assay [1] (setting [7]) is 10 to 100 nM; in assay [2] (setting [8]), at least 1000 nM; in assay [3] (setting [9]) it was 100 to 1000 nM.

Consider `CC(C)N1CC[C@H]2NC(=O)N(c3nc4c5c(ccc4s3)OCC5)[C@H]2C1` (relative stereo) [Example 15, cis-3-(7,8-dihydrofuro[3,2-e][1,3]benzothiazol-2-yl)-5-(propan-2-yl)octahydro-2H-imidazo[4,5-c]pyridin-2-one], for which the results for the IC50 in assay [1] (setting [7]), in assay [2] (setting [8]) and in assay [3] (setting [9]) were 10 to 100 nM, at least 1000 nM and at least 1000 nM, respectively.

For the molecule `CN1CCC[C@@H]2NC(=O)N(c3nc4c5c(ccc4s3)OCC5)[C@@H]2C1` (relative stereo) [Example 17, cis-3-(7,8-dihydrofuro[3,2-e][1,3]benzothiazol-2-yl)-5-methyloctahydroimidazo[4,5-c]azepin-2(1H)-one], the IC50 is 10 to 100 nM in assay [1] (setting [7]), at least 1000 nM in assay [2] (setting [8]) and at least 1000 nM in assay [3] (setting [9]).
